{"source": "paper PMC7707092", "about": "“Discovery and characterization of ORM‐11372, a novel inhibitor of the sodium‐calcium exchanger with positive inotropic activity” (British Journal of Pharmacology, 2020)", "key": {"NCX": {"system": "NCX", "parameters": "method as in Jost et al., 2013; Kohajda et al., 2016", "settings": "Dog, reference not given, ref Jost et al., 2013, Kohajda et al., 2016, cited from earlier work"}, "[1]": {"target": "T1, human NCX 1.1 current (I NCX) (Homo sapiens, UniProt P32418)", "T1 construct": "Cor.4U cells express cardiac proteins including NCX1; host or cells: Cor.4U hiPSC-derived cardiomyocytes", "test": "NCX current (I NCX), whole‐cell patch‐clamp in hiPSC‐derived cardiomyocytes", "format": "cell-based", "settings": "hiPSC‐CMs, 35–37°C", "description": "Human‐induced pluripotent stem cell (hiPSC)‐derived CMs (Cor.4U CMs; RRID:CVCL_Y550) were thawed, seeded onto gelatine‐coated coverslips, and maintained, as described in the manufacturer's protocol.\nManual patch‐clamp recordings of membrane currents (I NCX, L‐type Ca^2+ channel current [I CaL], human cardiac sodium 1.5 current [I Na], and I hERG) were undertaken using either an Axopatch 200B or Axopatch ID amplifier (Molecular Devices, USA), using the whole‐cell configuration. […]\nThe measurement of current in the K^+‐free bath solution using a ramp voltage protocol at 20‐s intervals represented the first control, after which values were measured in the presence of one or more increasing concentrations of ORM‐11372 and finally upon exposure to 10‐mM NiCl2. […] Therefore, to enhance the inward current and enable a solution with a certain concentration of ORM‐11372 to be measured, the concentrations of the K^+‐free and pipette solutions were altered. […] The outward human I NCX inhibition current was measured at the following ORM‐11372 concentrations: 3 (n = 4), 10 (n = 6), 30 (n = 4), and 100 (n = 3) nM. […] The outward I NCX current in rat CMs was measured at concentrations ranging from 1 to 1,000 nM (n = 5). The inward I NCX current in rats was measured in additional experiments under changed conditions, to enhance the inward I NCX current. […]"}, "[2]": {"target": "T2, L‐type Ca^2+ channel current (I CaL) (Homo sapiens, UniProt Q13936)", "T2 construct": "I CaL was recorded from hiPSC‐derived CMs; host or cells: Cor.4U hiPSC-derived cardiomyocytes", "T2 sequence (Q13936 whole entry)": "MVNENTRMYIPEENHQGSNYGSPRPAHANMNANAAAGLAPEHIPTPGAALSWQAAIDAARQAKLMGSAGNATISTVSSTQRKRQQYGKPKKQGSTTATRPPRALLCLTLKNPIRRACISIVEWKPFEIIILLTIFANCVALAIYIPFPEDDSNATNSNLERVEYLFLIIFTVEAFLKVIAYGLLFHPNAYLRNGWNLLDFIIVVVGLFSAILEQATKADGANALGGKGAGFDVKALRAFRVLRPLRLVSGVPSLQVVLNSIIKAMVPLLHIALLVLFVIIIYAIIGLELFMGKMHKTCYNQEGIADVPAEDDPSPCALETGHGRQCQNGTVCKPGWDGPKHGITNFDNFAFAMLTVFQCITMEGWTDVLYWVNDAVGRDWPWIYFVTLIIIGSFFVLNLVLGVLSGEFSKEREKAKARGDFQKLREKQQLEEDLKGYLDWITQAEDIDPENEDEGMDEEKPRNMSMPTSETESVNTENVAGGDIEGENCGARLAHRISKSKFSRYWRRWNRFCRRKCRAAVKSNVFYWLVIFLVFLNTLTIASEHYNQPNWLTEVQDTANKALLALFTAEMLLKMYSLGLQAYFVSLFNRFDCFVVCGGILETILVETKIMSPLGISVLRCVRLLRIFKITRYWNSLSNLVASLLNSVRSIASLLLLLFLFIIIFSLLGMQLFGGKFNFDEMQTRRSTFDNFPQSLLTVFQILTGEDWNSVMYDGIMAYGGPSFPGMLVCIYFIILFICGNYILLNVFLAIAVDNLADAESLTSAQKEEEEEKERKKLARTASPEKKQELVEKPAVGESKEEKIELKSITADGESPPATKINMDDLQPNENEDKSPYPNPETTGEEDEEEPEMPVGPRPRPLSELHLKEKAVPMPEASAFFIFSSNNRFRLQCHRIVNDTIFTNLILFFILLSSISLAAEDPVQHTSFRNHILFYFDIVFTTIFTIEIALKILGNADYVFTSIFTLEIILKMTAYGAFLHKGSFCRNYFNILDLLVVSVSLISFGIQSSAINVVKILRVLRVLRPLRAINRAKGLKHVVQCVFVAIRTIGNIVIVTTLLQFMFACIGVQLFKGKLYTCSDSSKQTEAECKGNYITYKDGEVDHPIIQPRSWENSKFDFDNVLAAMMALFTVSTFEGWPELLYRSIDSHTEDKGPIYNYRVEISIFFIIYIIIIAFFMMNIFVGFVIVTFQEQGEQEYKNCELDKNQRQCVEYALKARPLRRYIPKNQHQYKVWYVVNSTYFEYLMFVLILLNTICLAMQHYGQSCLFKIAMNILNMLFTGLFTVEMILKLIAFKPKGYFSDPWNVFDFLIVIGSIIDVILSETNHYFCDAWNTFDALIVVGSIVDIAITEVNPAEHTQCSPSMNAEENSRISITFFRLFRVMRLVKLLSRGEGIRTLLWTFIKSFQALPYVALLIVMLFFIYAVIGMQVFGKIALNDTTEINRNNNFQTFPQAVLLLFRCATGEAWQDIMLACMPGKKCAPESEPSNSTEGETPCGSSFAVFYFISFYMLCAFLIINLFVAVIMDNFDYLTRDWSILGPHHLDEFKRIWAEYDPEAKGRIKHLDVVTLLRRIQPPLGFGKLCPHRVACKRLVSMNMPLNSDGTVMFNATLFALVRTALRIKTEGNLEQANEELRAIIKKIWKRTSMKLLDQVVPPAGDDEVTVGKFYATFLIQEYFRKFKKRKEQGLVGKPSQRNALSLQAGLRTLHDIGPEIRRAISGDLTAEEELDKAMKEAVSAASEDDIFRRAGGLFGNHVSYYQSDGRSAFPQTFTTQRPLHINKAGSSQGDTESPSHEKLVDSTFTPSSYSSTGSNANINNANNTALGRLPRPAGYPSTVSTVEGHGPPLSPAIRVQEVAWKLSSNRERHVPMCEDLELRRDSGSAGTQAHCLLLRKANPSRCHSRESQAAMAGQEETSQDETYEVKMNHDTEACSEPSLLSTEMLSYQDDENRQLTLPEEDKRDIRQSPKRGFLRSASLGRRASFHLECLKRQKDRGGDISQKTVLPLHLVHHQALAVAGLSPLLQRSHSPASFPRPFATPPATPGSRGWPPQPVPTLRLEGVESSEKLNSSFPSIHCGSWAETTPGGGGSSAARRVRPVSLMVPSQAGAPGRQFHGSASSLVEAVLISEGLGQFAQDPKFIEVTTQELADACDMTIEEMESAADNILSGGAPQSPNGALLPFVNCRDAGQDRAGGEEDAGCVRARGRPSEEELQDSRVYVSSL", "T2 sequence (Q08289 whole entry partner)": "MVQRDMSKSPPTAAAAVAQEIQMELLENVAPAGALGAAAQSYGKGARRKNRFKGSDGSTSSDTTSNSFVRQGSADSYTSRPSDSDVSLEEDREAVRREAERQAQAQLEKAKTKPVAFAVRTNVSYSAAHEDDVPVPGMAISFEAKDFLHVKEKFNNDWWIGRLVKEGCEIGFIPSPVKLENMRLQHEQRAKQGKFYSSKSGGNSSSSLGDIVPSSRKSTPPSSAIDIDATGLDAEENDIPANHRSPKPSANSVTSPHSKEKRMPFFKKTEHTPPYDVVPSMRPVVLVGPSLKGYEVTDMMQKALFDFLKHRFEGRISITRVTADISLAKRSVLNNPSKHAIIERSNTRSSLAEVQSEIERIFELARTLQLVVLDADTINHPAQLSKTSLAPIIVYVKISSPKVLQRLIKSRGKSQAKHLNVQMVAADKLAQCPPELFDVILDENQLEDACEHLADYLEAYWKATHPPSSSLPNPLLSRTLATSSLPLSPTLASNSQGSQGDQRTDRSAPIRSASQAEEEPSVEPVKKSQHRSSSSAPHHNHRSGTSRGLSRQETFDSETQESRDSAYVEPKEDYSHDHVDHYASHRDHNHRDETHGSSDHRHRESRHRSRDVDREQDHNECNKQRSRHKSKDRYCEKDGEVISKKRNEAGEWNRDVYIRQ", "T2 sequence (P54289 25-946 partner limits assumed)": "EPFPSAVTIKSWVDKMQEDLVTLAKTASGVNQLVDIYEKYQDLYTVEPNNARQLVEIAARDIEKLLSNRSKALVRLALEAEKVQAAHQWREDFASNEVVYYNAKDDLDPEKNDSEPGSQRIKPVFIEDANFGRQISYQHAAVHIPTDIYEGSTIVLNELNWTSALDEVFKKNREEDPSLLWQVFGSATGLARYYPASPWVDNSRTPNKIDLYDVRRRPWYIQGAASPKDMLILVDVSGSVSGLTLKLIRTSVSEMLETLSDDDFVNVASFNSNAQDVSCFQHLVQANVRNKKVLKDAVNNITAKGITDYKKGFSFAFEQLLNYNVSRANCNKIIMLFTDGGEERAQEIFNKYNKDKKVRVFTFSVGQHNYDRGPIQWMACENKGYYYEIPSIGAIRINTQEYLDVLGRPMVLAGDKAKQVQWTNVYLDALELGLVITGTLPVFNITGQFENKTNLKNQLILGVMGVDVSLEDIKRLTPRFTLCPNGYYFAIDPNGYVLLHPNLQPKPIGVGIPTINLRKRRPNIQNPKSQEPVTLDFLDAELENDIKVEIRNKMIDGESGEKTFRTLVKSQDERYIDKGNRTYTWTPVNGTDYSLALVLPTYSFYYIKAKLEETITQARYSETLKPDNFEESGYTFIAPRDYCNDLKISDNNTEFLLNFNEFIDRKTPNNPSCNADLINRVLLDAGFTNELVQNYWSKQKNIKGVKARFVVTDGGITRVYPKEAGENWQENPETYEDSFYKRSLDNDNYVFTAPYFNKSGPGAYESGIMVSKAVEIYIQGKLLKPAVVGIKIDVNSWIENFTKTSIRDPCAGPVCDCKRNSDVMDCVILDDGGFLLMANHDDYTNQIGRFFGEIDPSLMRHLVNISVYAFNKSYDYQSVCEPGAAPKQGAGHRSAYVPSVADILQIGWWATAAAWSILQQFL", "T2 sequence (P54289 947-1103 partner limits assumed)": "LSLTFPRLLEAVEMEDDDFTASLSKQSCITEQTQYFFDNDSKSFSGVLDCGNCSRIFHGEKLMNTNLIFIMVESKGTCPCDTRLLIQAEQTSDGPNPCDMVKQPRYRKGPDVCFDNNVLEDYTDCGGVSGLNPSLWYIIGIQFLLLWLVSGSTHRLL", "test": "L‐type calcium current (I CaL), patch‐clamp in hiPSC‐derived cardiomyocytes", "format": "cell-based", "settings": "hiPSC‐CMs, 0 mV, read-out: inhibition of inward I CaL", "description": "Manual patch‐clamp recordings of membrane currents (I NCX, L‐type Ca^2+ channel current [I CaL], human cardiac sodium 1.5 current [I Na], and I hERG) were undertaken using either an Axopatch 200B or Axopatch ID amplifier (Molecular Devices, USA), using the whole‐cell configuration. Cells were at least initially (except when recording I Na) perfused with an extracellular solution consisting of (in mM) 143 NaCl, 4 KCl, 1.8 CaCl2, 1.2 MgCl2, 5 glucose, and 10 HEPES (pH 7.4 with NaOH; osmolarity adjusted to 301 ± 3 mOsm). A slightly modified version was used for the rat ventricular CMs (in mM: 144 NaCl, 0.4 NaH2PO4, 4.0 KCl, 1.8 CaCl2, 0.53 MgSO4, 5.5 glucose, and 5.0 HEPES). Patch pipettes were pulled with a P‐2000 or P‐97 micropipette puller (Sutter Instruments, USA) from borosilicate glass capillaries and had resistances of between 2 and 4 MΩ when filled with any of the pipette solutions (see below). The data were filtered at 1 or 2 kHz and digitized at 10 kHz with acquisition and analysis performed by use of pClamp software (Versions 8–10; Molecular Devices; RRID:SCR_011323).\nI CaL was recorded from hiPSC‐derived CMs (at room temperature, n = 2) and rat ventricular myocytes at 1 μM (n = 3; 5 cells) and at 10 μM (n = 4; 6 cells) in an extracellular solution supplemented with 4‐aminopyridine (3 mM) at 37 °C. […]"}}, "note": "pIC50: −log10 of the molar value. “And” between values parts separate entries of the source, which are not always exact repeats. Equal entries are not always repeated. Where two headings read alike, the source gives them in different places.", "data": [{"smiles": "O=C(CN1CCC(O)CC1)Nc1ccc(Oc2ccc3c(c2)CCC(c2ccccc2)O3)nc1", "note": "(centres unmarked) [ORM-10962]", "values": [{"measurement": "pIC50", "setting": "NCX; read-out: IC50 NCX forward", "result": 7.17}, {"measurement": "pIC50", "setting": "NCX; read-out: IC50 NCX reverse", "result": 7.26}]}, {"smiles": "Nc1cccc(-c2ccc(CNc3ccc(F)cc3)o2)c1", "note": "[ORM‐11372]", "values": [{"measurement": "pIC50", "setting": "[1]; Ni^2+‐sensitive current at +60 mV, read-out: IC50 outward (reverse) I NCX", "result": "8.32 and 8.30"}, {"measurement": "pIC50", "setting": "[1]; Ni^2+‐sensitive current at −100 mV, read-out: IC50 inward (forward) I NCX", "result": "8.25 and 8.22"}, {"measurement": "inhibition at 1 µM", "setting": "[2]", "result": 14.1, "unit": "%"}]}]}
